Assays:
NRF2 mRNA = experiment: qRT-PCR of NRF2 mRNA in THLE2 cells; format: cell-based; details: THLE2, 10 µM
Description: (§1) Total RNA in treated cells was isolated with the RNeasy Mini Kit (Qiagen, Germantown, MD). RNA was reverse transcribed into complementary DNA (cDNA) using high capacity RNA-to-cDNA kit (Applied Biosystems, Carlsbad, California). […] GAPDH was used as an internal reference. […] Error bars correspond to SD from three independent experiments.

DCN4 = target: T1, DCN4 (Homo sapiens, UniProt Q92564); experiment: Label-free BLI assay, DCN4; format: binding; details: concentrations up to 10 µM
T1 construct: DCN2 (residues 62–259), DCN3 (residues 86–304), DCN4 (residues 102–292) and DCN5 (residues 47–237); His6-TEV (N, cleaved yes); made in house; host or cells: Rosetta2 cells (E. coli)
T1 sequence (Q92564 102-292): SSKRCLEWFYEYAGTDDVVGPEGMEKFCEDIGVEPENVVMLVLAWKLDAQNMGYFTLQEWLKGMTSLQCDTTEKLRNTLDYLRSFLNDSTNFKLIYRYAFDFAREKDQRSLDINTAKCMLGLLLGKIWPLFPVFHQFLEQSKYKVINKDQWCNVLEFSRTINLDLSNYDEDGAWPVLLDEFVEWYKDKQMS

DCN3 = target: T2, DCN3 (Homo sapiens, UniProt Q8IWE4); experiment: Label-free BLI assay, DCN3; format: binding; details: concentrations up to 10 µM
T2 construct: DCN2 (residues 62–259), DCN3 (residues 86–304), DCN4 (residues 102–292) and DCN5 (residues 47–237); His6-TEV (N, cleaved yes); made in house; host or cells: Rosetta2 cells (E. coli)
T2 sequence (Q8IWE4 86-304): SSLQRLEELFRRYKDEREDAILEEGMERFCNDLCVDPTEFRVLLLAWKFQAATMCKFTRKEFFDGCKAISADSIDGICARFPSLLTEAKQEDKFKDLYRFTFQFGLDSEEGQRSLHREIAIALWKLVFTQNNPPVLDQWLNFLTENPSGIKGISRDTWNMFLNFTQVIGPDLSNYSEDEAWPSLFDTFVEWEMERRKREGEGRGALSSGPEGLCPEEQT

DCN5 = target: T3, DCN5 (Homo sapiens, UniProt Q9BTE7); experiment: Label-free BLI assay, DCN5; format: binding; details: concentrations up to 10 µM
T3 construct: DCN2 (residues 62–259), DCN3 (residues 86–304), DCN4 (residues 102–292) and DCN5 (residues 47–237); His6-TEV (N, cleaved yes); made in house; host or cells: Rosetta2 cells (E. coli)
T3 sequence (Q9BTE7 47-237): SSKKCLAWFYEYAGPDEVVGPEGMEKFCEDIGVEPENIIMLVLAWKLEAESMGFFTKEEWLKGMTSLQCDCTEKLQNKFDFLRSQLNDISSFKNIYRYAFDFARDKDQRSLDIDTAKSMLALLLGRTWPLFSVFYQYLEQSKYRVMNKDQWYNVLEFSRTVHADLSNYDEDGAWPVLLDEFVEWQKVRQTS

[1] = tested on: neddylation of cullin 1 and other cullins; experiment: Western blotting of neddylated and un-neddylated cullin 1 and other cullins in cells; format: cell-based; details: THLE2 liver cells, up to 24 h, DI-591 10 µM, MLN4924 0.3 µM
Description: (§2) Treated cells were lysed by RIPA buffer supplemented with protease and phosphatase inhibitors. The expression level of indicated proteins was examined by immunoblotting analysis. GAPDH was used as the loading control.

[2] = Equilibrium aqueous solubility, small-scale shake-flask method; details: for solubility at 24 h: thermodynamic from solid
Experimental: The equilibrium aqueous solubility of an individual compound at different pH values was determined with a small-scale shake-flask method in Eppendorf tubes. Compounds were added as powder in excess to Britton-Robinson buffer at pH 2.0 or phosphate buffer at pH 7.4 until heterogeneous suspensions were obtained. Suspensions containing excessive compound powder were sonicated in a water bath for 30 min followed by incubation at room temperature with shaking for 24 h to achieve thermodynamic equilibrium. […] Supernatants obtained were filtered using Millipore MultiScreen filter plates equipped with 0.45 µm membranes. Compound concentrations in the saturated solutions were measured by UV spectroscopy at the maximum absorption wavelengths of each compound that were pre-determined by a spectrum scan.

NEDD8 E1 (APP-BP1/Uba3) = target: T4, NEDD8 E1 (APP-BP1/Uba3) (Homo sapiens, UniProt Q8TBC4); experiment: In vitro UBC12~NEDD8 thioester forming assay; format: biochemical; details: DI-591 at concentrations up to 100 µM
T4 construct: purchased Boston Biochem
T4 sequence (Q8TBC4 1-463): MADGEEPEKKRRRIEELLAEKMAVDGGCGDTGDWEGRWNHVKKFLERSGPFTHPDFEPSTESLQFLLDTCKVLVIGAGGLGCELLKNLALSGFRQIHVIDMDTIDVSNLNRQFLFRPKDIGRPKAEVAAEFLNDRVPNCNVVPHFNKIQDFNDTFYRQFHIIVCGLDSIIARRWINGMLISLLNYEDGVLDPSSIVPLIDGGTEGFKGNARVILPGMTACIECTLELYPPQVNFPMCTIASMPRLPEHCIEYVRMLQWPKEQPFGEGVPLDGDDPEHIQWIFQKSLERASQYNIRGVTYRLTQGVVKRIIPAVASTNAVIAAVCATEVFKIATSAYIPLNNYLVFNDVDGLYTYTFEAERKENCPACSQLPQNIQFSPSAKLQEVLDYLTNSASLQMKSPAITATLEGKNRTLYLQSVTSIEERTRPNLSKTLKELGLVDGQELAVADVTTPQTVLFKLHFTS
T4 sequence (Q13564 1-534 partner): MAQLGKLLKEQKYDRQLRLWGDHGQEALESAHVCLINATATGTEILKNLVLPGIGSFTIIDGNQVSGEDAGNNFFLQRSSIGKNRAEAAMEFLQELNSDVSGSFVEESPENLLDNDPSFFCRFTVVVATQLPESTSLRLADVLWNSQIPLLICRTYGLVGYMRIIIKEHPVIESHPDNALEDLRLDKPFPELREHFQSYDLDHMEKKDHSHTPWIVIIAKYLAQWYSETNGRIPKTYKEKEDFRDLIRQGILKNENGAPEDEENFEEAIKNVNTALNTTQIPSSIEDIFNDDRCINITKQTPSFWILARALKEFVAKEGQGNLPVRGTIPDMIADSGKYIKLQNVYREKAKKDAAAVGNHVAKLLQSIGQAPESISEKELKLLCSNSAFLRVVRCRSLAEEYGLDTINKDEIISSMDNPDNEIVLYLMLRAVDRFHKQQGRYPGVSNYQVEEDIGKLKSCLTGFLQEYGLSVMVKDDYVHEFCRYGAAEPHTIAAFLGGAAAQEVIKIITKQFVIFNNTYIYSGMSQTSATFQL
Experimental: NEDD8, NEDD8 E1 (APP-BP1/Uba3) and UBC12 proteins were purchased from Boston Biochem. NEDD8 (10 μM), NEDD8 E1 (25 nM), and UBC12 (2 μM) were incubated in Tris-HCl (pH 7.4, 50 mM), MgCl2 (5 mM), DTT (0.5 mM) and BSA (0.1 mg/ml), with a tested compound at 25 °C for 10 min. Reactions were initiated by addition of 2 mM ATP (or distilled H2O) and ran for 5 min at 25 °C. 1 M DTT (or distilled H2O) was added to the reaction mixtures which were then kept on ice for 1 min followed by addition of SDS loading buffer (without DTT). The products were separated by SDS–PAGE, visualized by Coomassie stain and quantified by ImageLab (Bio-Rad).
1 Supplementa ry Figure 3:
3 Supplementary Figure 3. In vitro U BC12~N EDD8 thio ester forming assay.N EDD8,
4 NEDD8 E1 (APP -BP 1/Uba3) and UBC12 were purchased from Boston Biochem. 10μ M
5 NEDD8, 25nM N EDD8 E1,and 2μ M UBC12 were incubated in 50mM Tris-HCl (pH 7.4), 5mM
6 M gC l 2, 0.5mM DTT, and 0.1mg/ml BSA, with indicated compounds at 25℃ for 10min.
7 Reactions were initiated by addition o f 2mM ATP (or dH2O) and w ere run for 5min at 25℃ .
8 Reaction mixtures were t hen added with 1M DTT (or dH 2O) and kept on ice for 1min followed
9 by addition of SDS Loading buffer (without DTT). The products were s eparated b y SDS-PAGE,
10 visualized by Coomassie stain and quantified using an ImageLab imager ( Bio-Rad). […]

p21, Bim, CDT1 = experiment: Western blotting of cullin 1 and 4A CRL substrates in cells; format: cell-based; details: western blot, 24 h
Description: as §2

neddylation of cullin 3 = experiment: Western blotting of neddylated and un-neddylated cullin 3 in cells; format: cell-based; details: THLE2 liver cells, DI-591 at 10 µM
Description: as §2

NRF2 = experiment: Western blotting of NRF2 protein in cells; format: cell-based; details: western blot, 24 h
Description: as §2

NQO1 and HO1 mRNA = experiment: qRT-PCR of NRF2-regulated genes in THLE2 cells; format: cell-based; details: THLE2, 10 µM
Description: as §1

[3] = tested on: THLE2 cells and five additional cancer cell lines; experiment: Cell viability, WST assay, panel of 6 cell lines; format: cell-based; details: DI-591 at concentrations up to 20 µM

CCC(=O)N[C@@H](Cc1nc2ccc(C(C)C)cc2s1)C(=O)N[C@H](CNC(=O)CCN1CCOCC1)C1CCCCC1 [DI-591]
mRNA level of NRF2 (in words) (NRF2 mRNA): no effect
binding to DCN4 (in words) (DCN4): no appreciable binding
binding to DCN3 (in words) (DCN3): no appreciable binding
binding to DCN5 (in words) (DCN5): no appreciable binding
effect on neddylation of cullin 1, time course (in words) [1]: no effect
aqueous solubility (in words) [2]: excellent
solubility at 24 h ([2]; Britton-Robinson buffer, pH 2, aqueous buffer): > 20 mM
solubility at 24 h ([2]; Britton-Robinson buffer, pH 2.02, aqueous buffer): > 20 mM
solubility at 24 h ([2]; phosphate buffer, pH 7.4, aqueous buffer): > 20 mM
inhibition of UBC12 neddylation (E1 activity), in words (NEDD8 E1 (APP-BP1/Uba3)): no such effect
protein levels of p21, Bim and CDT1 (in words) (p21, Bim, CDT1): no or minimal effect
time to complete depletion of neddylated cullin 3 (neddylation of cullin 3): ≤ 5 min
NRF2 protein level (in words) (NRF2): dose dependently increases
mRNA levels of NQO1 and HO1 (in words) (NQO1 and HO1 mRNA): robustly increases
cytotoxicity (in words) [3]: no significant cytotoxicity

— paper PMC5658359, “A potent small-molecule inhibitor of the DCN1-UBC12 interaction that selectively blocks cullin 3 neddylation” (Nature Communications, 2017)
